Laboratory results reported in PubChem BioAssay (NCI).
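The compound was tested at five concentrations on cells cultured in 96-well plates, with a 48-hour exposure period. GI50 = concentration required for 50% inhibition of growth. TGI is the concentration that stops growth completely.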

Assays:
Experiment in all cases: NCI anticancer screen, dose series, 48 h
HCC-2998 colon = system: HCC-2998 colon
A549 NSCLC = system: A549 NSCLC
RXF 393 renal = system: RXF 393 renal
SNB-75 CNS = system: SNB-75 CNS
HT29 colon = system: HT29 colon
IGROV1 ovarian = system: IGROV1 ovarian
M14 melanoma = system: M14 melanoma
COLO 205 colon = system: COLO 205 colon
786-0 renal = system: 786-0 renal
NCI-H460 lung = system: NCI-H460 lung

Compound	GI50 (HCC-2998 colon) [µM]	TGI (HCC-2998 colon) [µM]	GI50 (A549 NSCLC) [µM]	TGI (A549 NSCLC) [µM]	GI50 (RXF 393 renal) [µM]	TGI (RXF 393 renal) [µM]	GI50 (SNB-75 CNS) [µM]	TGI (SNB-75 CNS) [µM]	GI50 (HT29 colon) [µM]	TGI (HT29 colon) [µM]	GI50 (IGROV1 ovarian) [µM]	TGI (IGROV1 ovarian) [µM]	GI50 (M14 melanoma) [µM]	TGI (M14 melanoma) [µM]	GI50 (COLO 205 colon) [µM]	TGI (COLO 205 colon) [µM]	GI50 (786-0 renal) [µM]	TGI (786-0 renal) [µM]	GI50 (NCI-H460 lung) [µM]	TGI (NCI-H460 lung) [µM]
O=c1c2c(nc3n1CCS3)[nH]c1ccccc12	> 100	> 100	90.1	> 100	58.6	> 100	30.5	> 100	> 100	> 100	17.8	> 100	> 100	> 100	> 100	> 100	> 100	> 100	> 100	> 100
NC(=O)C(=Cc1ccc(C(O)P(=O)(O)O)cc1)C(N)=O (stereo not given)	–	> 100	–	> 100	–	> 100	–	> 100	–	> 100	–	> 100	–	> 100	–	> 100	–	> 100	–	> 100
CC1=C2[C@@H](CC1)[C@]1(C)O[C@@](C3CCCCC3)(C[C@H]1OC(=O)CO)[C@H]2OC(=O)/C=C/c1ccccc1	6.3	18.4	7.19	20.5	0.029	0.483	7.94	34.8	6.1	16.9	18.7	44.1	8.9	26.8	8.06	24.3	1.48	17.6	6.35	17.8
O=C(O[C@H]1CN[C@H](C#Cc2cc3ncnc(Nc4ccc5c(ccn5Cc5cc(F)ccc5F)c4)c3s2)C1)N1CCOCC1	3.56	7.35	3.07	10.1	0.413	3.32	0.853	6.21	3.86	8.97	1.33	> 16.7	6.26	17.1	3.16	6.86	4.55	12.6	5.17	14
O=c1c(Oc2ccc(F)cc2F)cc2cnc(NC3CCOCC3)nc2n1C1CCS(=O)(=O)CC1	> 25	> 25	> 25	> 25	> 25	> 25	> 25	> 25	> 25	> 25	> 25	> 25	> 25	> 25	> 25	> 25	> 25	> 25	> 25	> 25
NOCC(=O)O	> 100	> 100	49.5	> 100	> 100	> 100	> 100	> 100	58.7	> 100	> 100	> 100	82.8	> 100	> 100	> 100	> 100	> 100	> 100	> 100
CC(=O)c1c(C)[nH]c(-c2nc3ccc(N4CCN(C)CC4)cc3[nH]2)c1-c1ccc(OCC2CCOCC2)cc1	0.766	3.31	0.714	17.8	0.696	2.83	0.0365	0.887	0.302	20.5	0.854	12.8	0.63	4.64	0.334	4.65	1.31	14.5	2.39	19.4
O=C(Nc1cc(Cl)c(Cl)cc1Cl)C(=O)C1C=CCS1(=O)=O (stereo not given)	–	> 100	–	> 100	–	> 100	–	> 100	–	> 100	–	> 100	–	> 100	–	> 100	–	> 100	–	> 100
CC12OC(c3ccccc3)=CC(c3ccc(Cl)cc3)=C1C(c1ccccc1)=CC2=O (stereo not given)	75.2	> 100	89.1	> 100	19.1	> 100	33.4	> 100	27.7	> 100	> 100	> 100	28.2	83	64.9	> 100	94.7	> 100	34.8	> 100
O=[N+]([O-])c1cccc(/C=N\NS(=O)(=O)c2ccc(Cl)cc2)c1O	–	> 100	–	> 100	–	> 100	–	> 100	–	> 100	–	> 100	–	> 100	–	> 100	–	> 100	–	> 100
Cc1nc2sc(C(=O)Nc3cccc(Cl)c3C)c(N)c2cc1C(=O)/C=C/c1ccccc1	0.827	1.57	0.476	6.68	0.206	0.801	0.217	5.45	0.178	0.888	0.316	1.1	0.239	1.35	0.979	2.39	0.232	0.907	0.424	1.74
CC(C)c1ccc(C(=O)Nc2nc3ccc(O)cc3s2)cc1	0.371	1.81	2.33	> 100	2.6	13.9	9.18	73.2	3.38	17.8	0.361	> 100	0.167	46.5	3.58	> 100	0.866	6.09	0.47	10.9
C=C1C(=O)O[C@H]2[C@H]1CC/C(CNC(=O)c1cc3cc(OC)ccc3[nH]1)=C\CC[C@@]1(C)O[C@@H]21	1.66	3.26	3.69	14.4	1.17	2.61	1.9	13.1	1.41	4.51	2.04	5.94	1.5	3.54	1.21	3.04	1.51	3.2	5.51	20
